Earlier results on 2 compounds are cited in US6936590B2, “C-aryl glucoside SGLT2 inhibitors and method” (Bristol Myers Squibb Company, priority 2001, dated 2005).

Broadly, the Km is the concentration of substrate that gives half-maximal velocity.

In one data set the target is T1, human SGLT2 (Homo sapiens, UniProt P31639).
T1 sequence (P31639 1-672): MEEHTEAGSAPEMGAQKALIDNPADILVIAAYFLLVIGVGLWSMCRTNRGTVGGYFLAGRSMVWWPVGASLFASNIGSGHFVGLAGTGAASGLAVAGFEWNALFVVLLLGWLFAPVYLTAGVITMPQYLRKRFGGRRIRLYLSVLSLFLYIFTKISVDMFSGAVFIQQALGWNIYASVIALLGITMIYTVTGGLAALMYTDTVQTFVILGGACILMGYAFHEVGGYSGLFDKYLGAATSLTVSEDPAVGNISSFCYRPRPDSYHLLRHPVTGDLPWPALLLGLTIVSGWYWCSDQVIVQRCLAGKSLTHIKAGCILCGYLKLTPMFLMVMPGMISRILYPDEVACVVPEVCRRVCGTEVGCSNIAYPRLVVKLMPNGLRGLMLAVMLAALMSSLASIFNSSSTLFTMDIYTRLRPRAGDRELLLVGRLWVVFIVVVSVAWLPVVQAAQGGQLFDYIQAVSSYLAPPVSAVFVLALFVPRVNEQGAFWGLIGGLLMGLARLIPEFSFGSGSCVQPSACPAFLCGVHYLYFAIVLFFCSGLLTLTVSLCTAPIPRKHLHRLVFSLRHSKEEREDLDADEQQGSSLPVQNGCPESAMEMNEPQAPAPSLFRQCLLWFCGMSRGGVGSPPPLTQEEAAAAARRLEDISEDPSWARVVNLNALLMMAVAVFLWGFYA
The note with it: read-out: Km values for uptake.

For a further data set, the target named is T2, human SGLT1 (Homo sapiens, UniProt P13866).
T2 sequence (P13866 1-664): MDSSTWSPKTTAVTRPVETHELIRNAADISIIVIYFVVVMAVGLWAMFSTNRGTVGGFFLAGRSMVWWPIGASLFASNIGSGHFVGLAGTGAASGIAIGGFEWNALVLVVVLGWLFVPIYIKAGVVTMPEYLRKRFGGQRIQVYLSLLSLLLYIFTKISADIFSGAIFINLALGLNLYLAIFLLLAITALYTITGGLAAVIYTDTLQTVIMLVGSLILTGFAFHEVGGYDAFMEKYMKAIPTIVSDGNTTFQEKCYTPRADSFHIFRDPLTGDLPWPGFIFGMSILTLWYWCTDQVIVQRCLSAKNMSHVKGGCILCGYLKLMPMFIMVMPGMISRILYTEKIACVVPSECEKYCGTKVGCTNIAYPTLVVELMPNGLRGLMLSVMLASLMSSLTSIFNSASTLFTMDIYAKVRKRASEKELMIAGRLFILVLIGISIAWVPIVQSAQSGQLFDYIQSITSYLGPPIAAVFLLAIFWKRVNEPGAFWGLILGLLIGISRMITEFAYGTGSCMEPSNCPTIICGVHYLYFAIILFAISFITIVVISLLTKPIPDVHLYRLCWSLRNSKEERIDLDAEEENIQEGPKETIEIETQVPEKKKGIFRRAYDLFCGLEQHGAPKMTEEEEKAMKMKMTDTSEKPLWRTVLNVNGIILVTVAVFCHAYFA
To be noted: read-out: Km values for uptake.

Turning to `O=C(CCc1ccc(O)cc1)c1c(O)cc(O)cc1O[C@@H]1O[C@H](CO)[C@@H](O)[C@H](O)[C@H]1O` [phlorizin], the “adverse effects on plasma ion balance, renal function or renal morphology” value in the data set on SGLT activity (phlorizin treatment for as long as two weeks) is listed as “No adverse effects on plasma ion balance, renal function or renal morphology have been observed”. For the same compound, the “effect on glucose excretion and plasma glucose” value with SGLT activity (several diabetic rodent models and one canine diabetes model) is “promoting glucose excretion, lowering fasting and fed plasma glucose, and promoting glucose utilization without hypoglycemic side effects”.

As for `CO[C@H]1O[C@H](CO)[C@@H](O)[C@H](O)[C@H]1O` [AMG, α-methyl-D-glucopyranoside], the Km at human SGLT2 was 1600 µM; at human SGLT1, 400 µM.
